{"source": "patent US6518272B2", "about": "“Cycloalkyl-substituted aryl-piperazines, piperidines and tetrahydropyridines as serotonergic agents” (Wyeth, priority 1998, dated 2003)", "key": {"human 5-HT1A receptor [1]": {"target": "T1, human 5-HT1A receptor (Homo sapiens, UniProt P08908)", "T1 construct": "expressed in transfected cells; host or cells: CHO cells (stably transfected)", "T1 sequence (P08908 1-422)": "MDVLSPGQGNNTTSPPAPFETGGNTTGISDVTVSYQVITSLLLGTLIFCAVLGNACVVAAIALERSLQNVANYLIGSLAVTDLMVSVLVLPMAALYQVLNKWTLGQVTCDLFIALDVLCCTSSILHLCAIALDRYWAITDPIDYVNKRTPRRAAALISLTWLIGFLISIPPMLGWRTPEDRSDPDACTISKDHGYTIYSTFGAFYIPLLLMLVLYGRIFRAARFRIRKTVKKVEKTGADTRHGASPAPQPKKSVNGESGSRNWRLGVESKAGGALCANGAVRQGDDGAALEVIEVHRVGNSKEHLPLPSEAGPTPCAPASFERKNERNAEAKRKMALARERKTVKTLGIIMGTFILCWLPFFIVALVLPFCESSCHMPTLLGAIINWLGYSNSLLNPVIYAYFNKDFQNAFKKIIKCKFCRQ", "assay": "Displacement of [3H] 8-OHDPAT from the 5-HT1A receptor in transfected CHO cells", "format": "binding", "description": "Affinity for the serotonin 5-HT1A receptor was established by assaying the test compound's ability to displace [^3H] 8-OHDPAT from its binding site on the receptor complex in CHO cells stably transfected with the human 5-HT1A receptor following the procedure described by J. Dunlop, Y. Zhang, D. Smith and L. Schechter (Eur. J. Pharmacol., submitted; variation of a procedure described by J. Zgombick et al., Naunyn-Schmiedeberg's Arch. Pharmacol., 354, 226-236 (1996))."}, "human 5-HT1A receptor [2]": {"target": "T1, human 5-HT1A receptor", "assay": "Agonist activity: inhibition of forskolin-stimulated cAMP accumulation in transfected CHO cells", "format": "cell-based", "settings": "CHO cells with human 5-HT1A receptor", "description": "(§1) Methods, 40, 47-55 (1998); variation of a procedure described by J. Zgombick et al., Naunyn-Schmiedeberg's Arch. Pharmacol., 354, 226-236 (1996)]."}, "[3]": {"system": "motion sickness and xylazine- and cis-platinin-induced vomiting", "settings": "cited from earlier work"}, "antidepressant response": {"system": "antidepressant response", "settings": "clinical trials; co-administration with the SSRI's paroxetine and fluoxetine; cited from earlier work"}, "human 5-HT1A receptor [4]": {"target": "T1, human 5-HT1A receptor", "assay": "Antagonist activity: antagonism of 8-OHDPAT inhibition of forskolin-stimulated cAMP accumulation in transfected CHO cells", "format": "cell-based", "settings": "CHO cells with human 5-HT1A receptor", "description": "as §1"}, "LTP": {"system": "LTP", "settings": "cited from earlier work"}, "[5]": {"system": "cognitive deficits induced by fornix lesions", "settings": "marmosets; cited from earlier work"}, "[6]": {"system": "human prostate tumor cell lines PC3, DU-145 and LNCaP", "settings": "PC3, DU-145 and LNCaP in vitro; cited from earlier work"}, "PC3 cell line": {"system": "PC3 cell line", "settings": "athymic nude mice; cited from earlier work"}, "depression": {"system": "depression", "settings": "in vivo; cited from earlier work"}, "[7]": {"system": "impairment of spatial learning caused by intrahippocampal scopolamine", "settings": "cited from earlier work"}, "[8]": {"settings": "displacement of [3H] 8-OHDPAT, CHO cells stably transfected with the human 5-HT1A receptor, read-out: 5-HT1A Affinity (IC50)"}}}
{"compound": "COc1cccc(N2CCN(C[C@H](CC3CCCCC3)NC(=O)C3CCCCC3)CC2)n1", "note": "[Example 12, Cyclohexane Carboxylic Acid {(1S)-1-Cyclohexylmethyl-2-[4-(6methoxypyridin-2-yl)-piperazin-1-yl]-ethyl}-amide]", "values": [{"measurement": "IC50", "setting": "human 5-HT1A receptor [1]; [8]", "value": 4.14, "unit": "nM"}, {"measurement": "EC50", "setting": "human 5-HT1A receptor [2]", "value": 14.8, "unit": "nM"}]}
{"compound": "O=C(NCCN1CCN(c2cccc3c2OC[C@H](CO)O3)CC1)c1ccc(F)cc1", "note": "[Flesinoxan]", "values": [{"measurement": "antiemetic activity in animal models", "setting": "[3]", "value": "particularly active"}]}
{"compound": "CC(C)NCC(O)COc1cccc2[nH]ccc12", "note": "(centres unmarked) [pindolol]", "values": [{"measurement": "median time needed to achieve a sustained antidepressant response", "setting": "antidepressant response", "value": "significantly reduced the median time"}]}
{"compound": "COc1ccccc1C1CCN(C[C@@H](CC2CCCCC2)N(C)C(=O)C2CCCCC2)CC1", "note": "[Example 17, Cyclohexanecarboxylic Acid {(1R)-1-Cyclohexylmethyl-2-[4-(2-methoxyphenyl)-piperidin-1-yl]-ethyl}-methyl-amide]", "values": [{"measurement": "IC50", "setting": "human 5-HT1A receptor [1]; [8]", "value": 1.69, "unit": "nM"}, {"measurement": "IC50", "setting": "human 5-HT1A receptor [4]", "value": 91.5, "unit": "nM"}]}
{"compound": "CN(C(=O)C1CCCCC1)[C@H](CC1CCCCC1)CN1CCN(c2cccc3c2OCCO3)CC1", "note": "[Example 5]", "values": [{"measurement": "IC50", "setting": "human 5-HT1A receptor [1]; [8]", "value": 2.37, "unit": "nM"}, {"measurement": "IC50", "setting": "human 5-HT1A receptor [4]", "value": 4.6, "unit": "nM"}]}
{"compound": "COc1ccccc1N1CCN(CCCCN2C(=O)c3ccccc3C2=O)CC1", "note": "[NAN-190]", "values": [{"measurement": "effect on LTP", "setting": "LTP", "value": "augment LTP"}]}
{"compound": "COc1ccccc1N1CCN(C[C@@H](CC2CCCCC2)NC(=O)C2(C)CCCCC2)CC1", "note": "[Example 2, 1-Methyl-cyclohexanecarboxylic Acid of {(1R)-1-Cyclohexylmethyl-2-[4-(2-methoxyphenyl)-piperazin-1-yl]-ethyl}-amide]", "values": [{"measurement": "IC50", "setting": "human 5-HT1A receptor [1]; [8]", "value": 1.23, "unit": "nM"}, {"measurement": "IC50", "setting": "human 5-HT1A receptor [4]", "value": 14.6, "unit": "nM"}]}
{"compound": "COc1ccccc1N1CCN(C[C@@H](CC2CCCCC2)NC=O)CC1", "note": "[Example 9, N-{(1R)-1-Cyclohexylmethyl-2-[4-(2-methoxyphenyl)-piperazin-1-yl]-ethyl}-formamide]", "values": [{"measurement": "IC50", "setting": "human 5-HT1A receptor [1]; [8]", "value": 1.49, "unit": "nM"}, {"measurement": "IC50", "setting": "human 5-HT1A receptor [4]", "value": 17.3, "unit": "nM"}]}
{"compound": "O=C(N[C@H](CC1CCCCC1)CN1CCN(c2nc3ccccc3s2)CC1)C1CCCCC1", "note": "[Example 13, Cyclohexanecarboxylic Acid {(1R)-1-Cyclohexylmethyl-2-[4-(benzothiazol-2-yl)-piperazin-1-yl]-ethyl}-amide]", "values": [{"measurement": "IC50", "setting": "human 5-HT1A receptor [1]; [8]", "value": 2.96, "unit": "nM"}, {"measurement": "EC50", "setting": "human 5-HT1A receptor [2]", "value": 4.8, "unit": "nM"}]}
{"compound": "COc1ccccc1C1CCN(C[C@@H](CC2CCCCC2)N(C)C(=O)C2(C)CCCCC2)CC1", "note": "[Example 18, 1-Methyl-cyclohexanecarboxylic Acid {(1R)-1-Cyclohexylmethyl-2-[4-(2-methoxypheniyl)-piperidin-1-yl]-ethyl}-methyl-amide]", "values": [{"measurement": "IC50", "setting": "human 5-HT1A receptor [1]; [8]", "value": 5.33, "unit": "nM"}, {"measurement": "IC50", "setting": "human 5-HT1A receptor [4]", "value": 97.5, "unit": "nM"}]}
{"compound": "COc1ccccc1N1CCN(C[C@@H](CC2CCCCC2)NC(=O)C2CCCCC2)CC1", "note": "[Example 1, Cyclohexanecarboxylic Acid {(1R)-1-Cyclohexylmethyl-2-[4-(2-methoxyphenyl)-piperazin-1-yl]-ethyl}-amide]", "values": [{"measurement": "IC50", "setting": "human 5-HT1A receptor [1]; [8]", "value": 0.57, "unit": "nM"}, {"measurement": "EC50", "setting": "human 5-HT1A receptor [2]", "value": 0.5, "unit": "nM"}]}
{"compound": "COc1ccccc1N1CCN(CCN(C(=O)C2CCCCC2)c2ccccn2)CC1", "note": "[WAY-100635]", "values": [{"measurement": "effect on cognitive deficits induced by fornix lesions", "setting": "[5]", "value": "reversed the cognitive deficits"}]}
{"compound": "CN(C(=O)C1CCCCC1)[C@H](CC1CCCCC1)CN1CCN(c2cccc3[nH]ccc23)CC1", "note": "[Example 7, Cyclohexanecarboxylic Acid {(1R)-1-Cyclohexylmethyl-2-[4-(1H-indol-4-yl)-piperazin-1-yl]-ethyl}-methyl-amide]", "values": [{"measurement": "IC50", "setting": "human 5-HT1A receptor [1]; [8]", "value": 8.84, "unit": "nM"}, {"measurement": "IC50", "setting": "human 5-HT1A receptor [4]", "value": 10.5, "unit": "nM"}]}
{"compound": "pindobind", "values": [{"measurement": "antineoplastic activity in vitro", "setting": "[6]", "value": "antineoplastic activity"}, {"measurement": "growth of PC3 cell line in vivo", "setting": "PC3 cell line", "value": "inhibited the growth"}]}
{"compound": "CN(C(=O)C1(C)CCCCC1)[C@H](CC1CCCCC1)CN1CCN(c2cccc3c2OCCO3)CC1", "note": "[Example 6, 1-Methyl-cyclohexanecarboxylic Acid {(1R)-1-Cyclohexylmethyl-2-[4-(2,3-dihydro-benzo[1,4]dioxin-5-yl)-piperazin-1-yl]-ethyl}-methyl-amide]", "values": [{"measurement": "IC50", "setting": "human 5-HT1A receptor [1]; [8]", "value": 6.92, "unit": "nM"}, {"measurement": "IC50", "setting": "human 5-HT1A receptor [4]", "value": 7.3, "unit": "nM"}]}
{"compound": "COc1ccccc1C1CCN(C[C@@H](CC2CCCCC2)NC(=O)C2CCCCC2)CC1", "note": "[Example 15, Cyclohexanecarboxylic Acid {(1R)-1-Cyclohexylmethyl-2-[4-(2-methoxyphenyl)-piperidin-1-yl]-ethyl}-amide]", "values": [{"measurement": "IC50", "setting": "human 5-HT1A receptor [1]; [8]", "value": 1.08, "unit": "nM"}, {"measurement": "EC50", "setting": "human 5-HT1A receptor [2]", "value": 3.9, "unit": "nM"}]}
{"compound": "O=C(N[C@H](CC1CCCCC1)CN1CCN(c2ncccn2)CC1)C1CCC1", "note": "[Example 11, Cyclobutane Carboxylic Acid {(1R)-1-Cyclohexylmethyl-2-[4-(pyrimidin-2-yl)-piperazin-1-yl]-ethyl}-amide]", "values": [{"measurement": "IC50", "setting": "human 5-HT1A receptor [1]; [8]", "value": 2.4, "unit": "nM"}, {"measurement": "EC50", "setting": "human 5-HT1A receptor [2]", "value": 21.7, "unit": "nM"}]}
{"compound": "COc1ccccc1N1CCN(C[C@@H](CC2CCCCC2)N(C)C(=O)C2CCCCC2)CC1", "note": "[Example 3, Cyclohexanecarboxylic Acid {(1R)-1-Cyclohexylmethyl-2-[4-(2-methoxyphenyl)-piperazin-1-yl]-ethyl}-methyl-amide]", "values": [{"measurement": "IC50", "setting": "human 5-HT1A receptor [1]; [8]", "value": 1.46, "unit": "nM"}, {"measurement": "IC50", "setting": "human 5-HT1A receptor [4]", "value": 4, "unit": "nM"}]}
{"compound": "O=C1CC2(CCCC2)CC(=O)N1CCCCN1CCN(c2ncccn2)CC1", "note": "[Buspirone, buspirone]", "values": [{"measurement": "antidepressant activity", "setting": "depression", "value": "weak antidepressant activity"}]}
{"compound": "COc1ccccc1N1CCN(CC(C(=O)NC(C)(C)C)c2ccccc2)CC1", "note": "(centres unmarked) [WAY-100135]", "values": [{"measurement": "effect on impairment of spatial learning", "setting": "[7]", "value": "prevented the impairment of spatial learning"}]}
{"compound": "COc1ccccc1C1=CCN(C[C@@H](CC2CCCCC2)NC(=O)C2(C)CCCCC2)CC1", "note": "[Example 21, 1-Methyl-cyclohexanecarboxylic Acid {(1R)-1-Cyclohexylmethyl-2-[4-(2-methoxyphenyl)-3,6-dihydro-2H-pyridin-1-yl]-ethyl}-amide]", "values": [{"measurement": "IC50", "setting": "human 5-HT1A receptor [1]", "value": 2.75, "unit": "nM"}, {"measurement": "IC50", "setting": "human 5-HT1A receptor [4]", "value": 45.5, "unit": "nM"}]}
{"compound": "O=C(N[C@H](CC1CCCCC1)CN1CCN(c2ncccn2)CC1)C1CCCCC1", "note": "[Example 10, Cyclohexanecarboxylic Acid {(1R)-1-Cyclohexylmethyl-2-[4-(pyrimidin-2-yl)-piperazin-1-yl]-ethyl}-amide]", "values": [{"measurement": "IC50", "setting": "human 5-HT1A receptor [1]; [8]", "value": 0.71, "unit": "nM"}, {"measurement": "EC50", "setting": "human 5-HT1A receptor [2]", "value": 1.3, "unit": "nM"}]}
